This note sets out measurements from DBAASP.

In brackets after ≈: the same amount, converted by molar mass.

Test systems include Candida albicans; Escherichia coli UB1005; Shigella dysenteriae; Escherichia coli BL21AI; Streptococcus mutans; Escherichia coli BW25113.
Common to all, as to experiment: ≥ marks a high value that may be exact or a test limit, other limits are often not marked, values filed in µg/mL are converted to µM
Experiment [1] deals with Enterococcus faecalis ATCC 29212.
For experiment [2], the system named is Staphylococcus aureus ATCC 25923.
The test system of experiment [3] is Staphylococcus epidermidis.
Experiment [4] relates to Pseudomonas aeruginosa H103.
Experiment [5] has as its system Salmonella enterica serovar Typhimurium.
Experiment [6] relates to Staphylococcus aureus ATCC 2592.
The test system of experiment [7] is Candida albicans ATCC 90028.
For experiment [8], the system named is Staphylococcus aureus NCTC 8325.
For experiment [9], the system named is Candida albicans ATCC 2002.
Experiment [10] has as its system Micrococcus luteus ATCC 10240.
The test system of experiment [11] is Micrococcus luteus ATCC 9341.

Broadly, the MIC is the smallest concentration in the dilution series that meets the test's criterion for growth inhibition. The low end stands for greater potency, the high end for weaker potency. As to `CC[C@H](C)[C@H](NC(=O)[C@H](Cc1ccccc1)NC(=O)[C@@H](N)Cc1ccccc1)C(=O)N[C@@H](Cc1ccc(O)cc1)C(=O)N[C@H](C(=O)N[C@@H](Cc1c[nH]c2ccccc12)C(=O)N[C@@H](CCCN=C(N)N)C(=O)N[C@@H](CCCN=C(N)N)C(=O)N[C@@H](CCCN=C(N)N)C(=O)O)C(C)C` [FFIYVWRRR], the MIC in experiment [1] is 3.8 µM (≈ 5.1 µg/mL); against Candida albicans, 7.6 µM (≈ 10.2 µg/mL); in experiment [2], 1.9 µM (≈ 2.55 µg/mL); against Escherichia coli UB1005, 3.8 µM (≈ 5.1 µg/mL); in experiment [3], 1 µM (≈ 1.34 µg/mL); in [4] it was 15.3 µM (≈ 20.5 µg/mL). Besides, the MIC in experiment [5] worked out at 7.6 µM (≈ 10.2 µg/mL).
As to `CC[C@H](C)[C@H](NC(=O)CNC(=O)[C@H](CO)NC(=O)[C@H](CC(C)C)NC(=O)[C@H](CC(C)C)NC(=O)CN)C(=O)N[C@@H](CC(C)C)C(=O)NCC(=O)N[C@@H](C)C(=O)NCC(=O)N[C@@H](CCCCN)C(=O)N[C@@H](CC(N)=O)C(=O)N[C@H](C(=O)N[C@H](C(=O)N[C@H]1CSSC[C@@H](C(=O)O)NC(=O)[C@H](CC(C)C)NC(=O)CNC(=O)[C@H](CO)NC(=O)[C@H](CC(C)C)NC(=O)CNC1=O)C(C)C)[C@@H](C)CC` [GLLSGILGAGKNIVCGLSGLC], the minimum inhibitory concentration (MIC) is 1.29 µM (≈ 2.5 µg/mL) in experiment [6]; 0.643 µM (≈ 1.25 µg/mL) against Shigella dysenteriae; not below 100 µM in experiment [7]; not below 100 µM in experiment [8]; 3.86 µM (≈ 7.49 µg/mL) in experiment [9].
For `CC[C@H](C)[C@H](NC(=O)[C@H](Cc1ccc(O)cc1)NC(=O)[C@@H](NC(=O)[C@@H]1CCCN1C(=O)[C@H](CCCN=C(N)N)NC(=O)[C@H](CC(N)=O)NC(=O)[C@H](CC(N)=O)NC(=O)CN)C(C)C)C(=O)N[C@@H](C)C(=O)N[C@@H](CCC(N)=O)C(=O)N1CCC[C@H]1C(=O)N[C@@H](CCCN=C(N)N)C(=O)N1CCC[C@H]1C(=O)N1CCC[C@H]1C(=O)N[C@@H](Cc1cnc[nH]1)C(=O)N1CCC[C@H]1C(=O)N[C@@H](C)C(=O)N[C@@H](CC(C)C)C(N)=O` [GNNRPVYIAQPRPPHPAL], the MIC (in experiment [10]; with Escherichia coli BL21AI) was not below 62.6 µM in each case.
In experiment [11], `CC[C@H](C)[C@H](N)C(=O)N[C@@H](CC(C)C)C(=O)N1CCC[C@H]1C(=O)N[C@@H](CCC(=O)O)C(=O)N[C@@H](CCCCN)C(=O)N[C@@H](CCC(=O)O)C(=O)N1CCC[C@H]1C(=O)N[C@@H](CCC(=O)O)C(=O)N[C@@H](CCC(=O)O)C(=O)N1CCC[C@H]1C(=O)N[C@@H](CCC(=O)O)C(=O)N[C@@H](CCCN=C(N)N)C(=O)N[C@@H](CCCN=C(N)N)C(N)=O` [ILPEKEPEEPERR] displayed a minimum inhibitory concentration (MIC) not below 100 µM.
`CC[C@H](C)[C@H](N)C(=O)N[C@@H](CC(C)C)C(=O)N1CCC[C@H]1C(=O)N[C@@H](CCCCN)C(=O)N[C@@H](CCCCN)C(=O)N[C@@H](CCCCN)C(=O)N1CCC[C@H]1C(=O)N[C@@H](CCCCN)C(=O)N[C@@H](CCCCN)C(=O)N1CCC[C@H]1C(=O)N[C@@H](CCCCN)C(=O)N[C@@H](CCCN=C(N)N)C(=O)N[C@@H](CCCN=C(N)N)C(N)=O` [ILPKKKPKKPKRR] gave an MIC in experiment [11] not below 100 µM.
In turn, `CC[C@H](C)[C@H](NC(=O)[C@H](CCC(=O)O)NC(=O)[C@H](CCCCN)NC(=O)[C@H](CC(C)C)NC(=O)[C@H](CCC(N)=O)NC(=O)[C@H](CCC(=O)O)NC(=O)[C@@H](NC(=O)[C@H](CC(C)C)NC(=O)[C@@H](N)CCCCN)C(C)C)C(=O)N[C@@H](Cc1ccccc1)C(=O)N[C@@H](CCCN=C(N)N)C(=O)O` [KLVEQLKEIFR] had an MIC in the experiment with Streptococcus mutans not below 178 µM.
On to `CC[C@H](C)[C@H](NC(=O)[C@H](Cc1c[nH]c2ccccc12)NC(=O)[C@H](Cc1c[nH]c2ccccc12)NC(=O)[C@H](CCCCN)NC(=O)[C@H](Cc1c[nH]c2ccccc12)NC(=O)[C@H](CCCN=C(N)N)NC(=O)[C@H](CCCN=C(N)N)NC(=O)[C@H](CCCCN)NC(=O)[C@@H](N)CC(C)C)C(=O)O` [LKRRWKWWI], for which the MIC came out at 9.6 µM (≈ 13.2 µg/mL) in [1]; 19.1 µM (≈ 26.2 µg/mL) with Candida albicans; 2.4 µM (≈ 3.29 µg/mL) in experiment [2]; 2.4 µM (≈ 3.29 µg/mL) against Escherichia coli UB1005; 1.2 µM (≈ 1.65 µg/mL) in experiment [3]; 19.1 µM (≈ 26.2 µg/mL) in experiment [4]. The MIC in experiment [5] was 9.6 µM (≈ 13.2 µg/mL).
`CC[C@H](C)[C@H](NC(=O)[C@@H]1CCCN1C(=O)[C@H](CCCN=C(N)N)NC(=O)[C@H](CCCN=C(N)N)NC(=O)[C@H](Cc1ccccc1)NC(=O)[C@@H](N)CCCN=C(N)N)C(=O)N[C@@H](CCCN=C(N)N)C(=O)N[C@@H](CCCN=C(N)N)C(=O)N[C@@H](CCCN=C(N)N)C(=O)N1CCC[C@H]1C(=O)N[C@H](C(=O)N[C@@H](CCCN=C(N)N)C(=O)N1CCC[C@H]1C(=O)N1CCC[C@H]1C(=O)N[C@@H](Cc1ccccc1)C(=O)N[C@@H](Cc1ccc(O)cc1)C(=O)N1CCC[C@H]1C(=O)O)[C@@H](C)CC` [RFRRPIRRRPIRPPFYP] came in with an MIC against Escherichia coli BW25113 of 8 µM (≈ 18.2 µg/mL).
As for `CC(C)C[C@H](NC(=O)[C@H](Cc1ccccc1)NC(=O)[C@H](CCCCN)NC(=O)[C@H](Cc1c[nH]c2ccccc12)NC(=O)[C@H](Cc1c[nH]c2ccccc12)NC(=O)[C@H](CCCN=C(N)N)NC(=O)[C@H](CCCCN)NC(=O)[C@H](CC(C)C)NC(=O)[C@@H](N)CCCN=C(N)N)C(=O)O` [RLKRWWKFL], the MIC in experiment [1] came out at 9.8 µM (≈ 13.1 µg/mL); with Candida albicans, 9.8 µM (≈ 13.1 µg/mL); in [2], 2.4 µM (≈ 3.2 µg/mL); in the experiment with Escherichia coli UB1005 it was 1.2 µM (≈ 1.6 µg/mL); in experiment [3], 1.2 µM (≈ 1.6 µg/mL); in experiment [4] it was 9.8 µM (≈ 13.1 µg/mL). This molecule displayed an MIC in experiment [5] of 4.9 µM (≈ 6.53 µg/mL).
In turn, `NC(N)=NCCC[C@H](NC(=O)[C@H](Cc1c[nH]c2ccccc12)NC(=O)[C@H](Cc1c[nH]c2ccccc12)NC(=O)[C@H](Cc1c[nH]c2ccccc12)NC(=O)[C@H](CCCN=C(N)N)NC(=O)[C@H](CCCN=C(N)N)NC(=O)[C@@H](N)CCCN=C(N)N)C(=O)O` [RRRWWWR] showed a minimal inhibitory concentration (MIC) in the experiment on Streptococcus mutans of 26.6 µM (≈ 32 µg/mL).
In turn, `NCCCC[C@H](NC(=O)[C@H](CCCN=C(N)N)NC(=O)[C@H](CCCN=C(N)N)NC(=O)[C@H](CCCCN)NC(=O)[C@H](Cc1c[nH]c2ccccc12)NC(=O)[C@H](CCCN=C(N)N)NC(=O)[C@@H](N)CCCN=C(N)N)C(=O)O` [RRWKRRK] displayed a minimal inhibitory concentration (MIC) against Streptococcus mutans not below 461 µM.
In the experiment on Streptococcus mutans, `NC(=O)[C@H](Cc1cnc[nH]1)NC(=O)[C@H](Cc1ccccc1)NC(=O)[C@H](Cc1ccccc1)NC(=O)[C@H](Cc1cnc[nH]1)NC(=O)[C@H](Cc1cnc[nH]1)NC(=O)[C@H](Cc1ccccc1)NC(=O)[C@H](Cc1cnc[nH]1)NC(=O)[C@H](CCCN=C(N)N)NC(=O)[C@H](Cc1c[nH]c2ccccc12)NC(=O)[C@H](Cc1c[nH]c2ccccc12)NC(=O)[C@H](CCCN=C(N)N)NC(=O)[C@H](CCCN=C(N)N)NC(=O)[C@H](Cc1c[nH]c2ccccc12)NC(=O)[C@@H](N)CCCN=C(N)N` [RWRRWWRHFHHFFH] had a minimal inhibitory concentration (MIC) of 3.65 µM (≈ 8 µg/mL).
Consider `CC[C@H](C)[C@H](NC(=O)[C@H](CCCN=C(N)N)NC(=O)[C@H](CCCN=C(N)N)NC(=O)[C@@H]1CCCN1C(=O)[C@@H]1CCCN1C(=O)[C@H](CCCN=C(N)N)NC(=O)[C@@H]1CCCN1C(=O)[C@H](CCCN=C(N)N)NC(=O)[C@@H]1CCCN1C(=O)[C@H](CC(C)C)NC(=O)[C@H](Cc1ccc(O)cc1)NC(=O)[C@@H]1CCCN1C(=O)[C@@H]1CCCN1C(=O)[C@H](CCCCN)NC(=O)[C@H](CC(=O)O)NC(=O)[C@@H](N)C(C)C)C(=O)N[C@@H](Cc1ccc(O)cc1)C(=O)N[C@@H](CC(N)=O)C(=O)N[C@@H](CCCN=C(N)N)C(=O)N[C@@H](CC(N)=O)C(=O)O` [VDKPPYLPRPRPPRRIYNRN], for which the minimum inhibitory concentration (MIC) amounted to 6.39 µM (≈ 16 µg/mL) in experiment [10] and 3.19 µM (≈ 8 µg/mL) with Escherichia coli BL21AI.
For the molecule `CC[C@H](C)[C@H](NC(=O)[C@H](Cc1c[nH]c2ccccc12)NC(=O)[C@H](CCCCN)NC(=O)[C@H](CCCCN)NC(=O)[C@H](CC(C)C)NC(=O)[C@H](Cc1c[nH]c2ccccc12)NC(=O)[C@H](CCCCN)NC(=O)[C@@H](N)Cc1c[nH]c2ccccc12)C(=O)N[C@@H](CCCCN)C(=O)O` [WKWLKKWIK], the minimal inhibitory concentration (MIC) in [1] worked out at 11.5 µM (≈ 15.1 µg/mL); in the experiment with Candida albicans, 5.8 µM (≈ 7.63 µg/mL); in [2] it was 0.7 µM (≈ 0.921 µg/mL); with Escherichia coli UB1005, 5.8 µM (≈ 7.63 µg/mL); in [3] it was 0.458 µM (≈ 0.603 µg/mL); in experiment [4] it was 2.9 µM (≈ 3.82 µg/mL). Moreover, the minimal inhibitory concentration (MIC) in [5] was 11.5 µM (≈ 15.1 µg/mL).
Take `NCCCC[C@H](NC(=O)[C@@H](N)Cc1c[nH]c2ccccc12)C(=O)N[C@@H](Cc1c[nH]c2ccccc12)C(=O)N1CCC[C@H]1C(=O)N[C@@H](Cc1c[nH]c2ccccc12)C(=O)N[C@@H](Cc1c[nH]c2ccccc12)C(=O)N1CCC[C@H]1C(=O)N[C@@H](Cc1c[nH]c2ccccc12)C(=O)N[C@@H](CCCN=C(N)N)C(=O)N[C@@H](CCCN=C(N)N)C(N)=O` [WKWPWWPWRR]: in experiment [11], the MIC was 0.4 µM (≈ 0.633 µg/mL).
